Measurements: patent publication US20250197424A1, “QUINOLINE COMPOUND AND USE THEREOF” (SHANGHAI PHARMACEUTICALS HOLDING CO., LTD., priority 2022, published 2025)
Where a name gives a salt, the structure may show the parent alone.

Molecular target: GTP-KRAS-G12D:SOS1 (Homo sapiens (Human), UniProt P01116, G12D)
Test: GTP-KRAS-G12D:SOS1 binding inhibition
Procedure: The IC50 of the compounds was fitted using a nonlinear regression equation with GraphPad Prism 8. The results are presented in Table 2: • Negative control: DMSO • Positive control: 100 μM BI-2852
The following nonlinear fitting formula was used to obtain the IC50 (half-maximal inhibitory concentration) of the compounds:
[formula] • X: logarithm of the compound concentration • Y: 665/615 Ratio

GTP-KRAS-G12D:SOS1, sequence (P01116-2 other isoform, or with tags, fused parts or gaps G12D): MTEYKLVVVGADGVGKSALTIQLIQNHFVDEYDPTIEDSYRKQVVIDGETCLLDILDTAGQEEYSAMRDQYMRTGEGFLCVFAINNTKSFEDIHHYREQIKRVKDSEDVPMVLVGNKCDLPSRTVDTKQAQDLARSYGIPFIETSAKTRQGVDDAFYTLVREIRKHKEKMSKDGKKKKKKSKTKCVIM

IC50 [nM]	SMILES
314	O=C1CC2(CCc3c(nc(OC[C@@]45CCCN4C[C@H](F)C5)nc3N3C[C@H]4CC[C@@H](C3)N4)C2)c2cc(O)cc(Cl)c21 (single isomer, unassigned) [Compound 6a, (S or R)-4′-((1R,5S)-3,8-Diazabicyclo[3.2.1]octan-3-yl)-4-chloro-2′-(((2R,7aS)-2-fluorotetrahydro-1H-pyrrolizin-7a(5H)-yl)methoxy)-6-hydroxy-5′,8′-dihydro-6′H-spiro[indene-1,7′-quinazolin]-3 (2H)-one dihydrochloride]
247	Cc1cc(N)nc(-c2c(F)c3c4c(nc(OC[C@@]56CCCN5C[C@H](F)C6)nc4c2F)N2C[C@@H]4CCC(N4)[C@@H]2CCO3)c1C(F)(F)F (single isomer, unassigned) [Compound 26a, 6-((2S or 2R,6aS,7S,10R)-1,3-Difluoro-14-(((2R,7aS)-2-fluorotetrahydro-1H-pyrrolizin-7a(5H)-yl)methoxy)-5,6,6a,7,8,9,10,11-octahydro-7,10-epiminoazepino[1′,2′: 5,6][1,5]oxazocino[4,3,2-de]quinazolin-2-yl)-4-methyl-5-(trifluoromethyl)pyridin-2-amine]
7220	CCc1cccc2cc(O)cc(-c3c(F)c4c5c(nc(OC[C@]67C[C@@H](F)CN6C[C@H](CO)C7)nc5c3F)N3CC5CCC(N5)C3CO4)c12 (single isomer, unassigned) [Compound 21a, 4-((2R or 2S, 5aS,6S,9R)-1,3-Difluoro-13-(((2R,6R,7aS)-2-fluoro-6-(hydroxymethyl)tetrahydro-1H-pyrrolizin-7a(5H)-yl)methoxy)-5a,6,7,8,9,10-hexahydro-5H-6,9-epiminoazepino[2′,1′:3,4][1,4]oxazepino[5,6,7-de]quinazolin-2-yl)-5-ethylnaphthalen-2-ol dihydrochloride]
11.7	Cc1cc(N)nc(-c2c(F)c3c4c(nc(OC[C@@]56CCCN5C[C@H](F)C6)nc4c2F)N2CC4CCC(N4)C2CO3)c1C(F)(F)F (single isomer, unassigned) [10b′, (R or S)-6-((5aS,6S,9R)-1,3-difluoro-13-(((2R,7aS)-2-fluorotetrahydro-1H-pyrrolizin-7a(5H)-yl)methoxy)-5a,6,7,8,9,10-hexahydro-5H-6,9-epiminoazepino[2′,1′:3,4][1,4]oxazepino[5,6,7-de]quinazolin-2-yl)-4-methyl-5-(trifluoromethyl)pyridin-2-amine]
21.3	COCCc1cccc2cc(O)cc(-c3c(F)c4c5c(nc(OC[C@@]67CCCN6C[C@H](F)C7)nc5c3F)N3CC5CCC(N5)C3CO4)c12 (single isomer, unassigned) [Compound 12b, 4-((2S or 2R,5aS,6S,9R)-1,3-difluoro-13-(((2R,7aS)-2-fluorotetrahydro-1H-pyrrolizin-7a(5H)-yl)methoxy)-5a,6,7,8,9,10-hexahydro-5H-6,9-epiminoazepino[2′,1′:3,4][1,4]oxazepino[5,6,7-de]quinazolin-2-yl)-5-(2-methoxyethyl) naphthalen-2-ol dihydrochloride]
3690	CCc1cccc2cc(O)cc(-c3c(F)c4c5c(nc(OC[C@]67C[C@@H](F)CN6C[C@@H](CO)C7)nc5c3F)N3CC5CCC(N5)C3CO4)c12 (single isomer, unassigned) [Compound 23a, 4-((2R or 2S, 5aS,6S,9R)-1,3-Difluoro-13-(((2R,6S,7aS)-2-fluoro-6-(hydroxymethyl)tetrahydro-1H-pyrrolizin-7a(5H)-yl)methoxy)-5a,6,7,8,9,10-hexahydro-5H-6,9-epiminoazepino[2′,1′:3,4][1,4]oxazepino[5,6,7-de]quinazolin-2-yl)-5-ethylnaphthalen-2-ol dihydrochloride]
17.2	CCc1cccc2cc(O)cc(-c3c(F)c4c5c(nc(OC[C@]67C[C@@H](F)CN6C[C@@H](CN6CCCCC6)C7)nc5c3F)N3CC5CCC(N5)C3CO4)c12 (single isomer, unassigned) [Compound 27b, 4-((2S or 2R,5aS,6S,9R)-1,3-difluoro-13-(((2R,6R,7aS)-2-fluoro-6-(piperidin-1-ylmethyl)tetrahydro-1H-pyrrolizin-7a(5H)-yl)methoxy)-5a,6,7,8,9,10-hexahydro-5H-6,9-epiminoazepino[2′,1′:3,4][1,4]oxazepino[5,6,7-de]quinazolin-2-yl)-5-ethylnaphthalen-2-ol trihydrochloride]
18.5	Oc1cc(-c2c(F)c3c4c(nc(OC[C@@]56CCCN5C[C@H](F)C6)nc4c2F)N2CC4CCC(N4)C2CO3)c2c(C3CC3)cccc2c1 (single isomer, unassigned) [Compound 11b, 5-cyclopropyl-4-((2S or 2R,5aS,6S,9R)-1,3-difluoro-13-(((2R,7aS)-2-fluorotetrahydro-1H-pyrrolizin-7a(5H)-yl)methoxy)-5a,6,7,8,9,10-hexahydro-5H-6,9-epiminoazepino[2′,1′:3,4][1,4]oxazepino[5,6,7-de]quinazolin-2-yl) naphthalen-2-ol dihydrochloride]
2670	CCc1cccc2cc(O)cc(-c3c(F)c4c5c(nc(OC[C@@]67C[C@H](O)CN6C[C@H](F)C7)nc5c3F)N3CC5CCC(N5)C3CO4)c12 (single isomer, unassigned) [Compound 15a, (2S,6R,7aS)-7a-((((2R or 2S, 5aS,6S,9R)-2-(8-Ethyl-3-hydroxynaphthalen-1-yl)-1,3-difluoro-5a,6,7,8,9,10-hexahydro-5H-6,9-epiminoazepino[2′,1′:3,4][1,4]oxazepino[5,6,7-de]quinazolin-13-yl)oxy)methyl)-6-fluorohexahydro-1H-pyrrolizin-2-ol dihydrochloride]

SMILES	IC50 [nM]
CCc1cccc2cc(O)cc(-c3c(F)c4c5c(nc(OC[C@@]67CCC8(CC8)N6C[C@H](F)C7)nc5c3F)N3CC5CCC(N5)C3CO4)c12 (single isomer, unassigned) [Compound 20b, 4-((2S or 2R,5aS,6S,9R)-1,3-difluoro-13-(((6′R,7a'S)-6′-fluorotetrahydrospiro[cyclopropane-1,3′-pyrrolizin]-7a′ (5′H)methoxy)-5a,6,7,8,9,10-hexahydro-5H-[6,9]epiminoazepino[2′,1′:3,4][1,4]oxazepino[5,6,7-de]quinazolin-2-yl)-5-ethylnaphthalen-2-oldihydrochloride]	8.81
CCc1cccc2cc(O)cc(-c3c(F)c4c5c(nc(OC[C@@]67CCCN6C[C@H](F)C7)nc5c3F)N3CC5CCC(N5)C3CO4)c12 (single isomer, unassigned) [Compound 5b, (R or S)-4-((5aS,6S,9R)-1,3-difluoro-13-(((2R,7aS)-2-fluorotetrahydro-1H-pyrrolizin-7a(5H)-yl)methoxy)-5a,6,7,8,9,10-hexahydro-5H-6,9-epiminoazepino[2′,1′:3,4][1,4]oxazepino[5,6,7-de]quinazolin-2-yl)-5-ethylnaphthalen-2-ol dihydrochloride]	2800
Oc1ccc(-c2cc[nH]n2)c(-c2c(F)c3c4c(nc(OC[C@@]56CCCN5C[C@H](F)C6)nc4c2F)N2CC4CCC(N4)C2CO3)c1 (stereo partly drawn) [Compound 24, 3-((5aS,6S,9R)-1,3-Difluoro-13-(((2R,7aS)-2-fluorotetrahydro-1H-pyrrolizin-7a(5H)-yl)methoxy)-5a,6,7,8,9,10-hexahydro-5H-6,9-epiminoazepino[2′,1′:3,4][1,4]oxazepino[5,6,7-de]quinazolin-2-yl)-4-(1H-pyrazol-3-yl) phenol dihydrochloride]	2070
COc1ccc(-c2cc[nH]n2)c(-c2c(F)c3c4c(nc(OC[C@@]56CCCN5C[C@H](F)C6)nc4c2F)N2CC4CCC(N4)C2CO3)c1 (stereo partly drawn) [Compound 17, (5aS,6S,9R)-1,3-Difluoro-13-(((2R,7aS)-2-fluorotetrahydro-1H-pyrrolizin-7a(5H)-yl)methoxy)-2-(5-methoxy-2-(1H-pyrazol-3-yl)phenyl)-5a,6,7,8,9,10-hexahydro-5H-6,9-epiminoazepino[2′,1′:3,4][1,4]oxazepino[5,6,7-de]quinazoline dihydrochloride]	8310
CCc1cccc2cc(O)cc(-c3c(F)c4c5c(nc(OC[C@]67C[C@@H](F)CN6C[C@@H](COC)C7)nc5c3F)N3CC5CCC(N5)C3CO4)c12 (single isomer, unassigned) [Compound 18a, 4-((2R or 2S, 5aS,6S,9R)-1,3-Difluoro-13-(((2R,6S,7aS)-2-fluoro-6-(methoxymethyl)tetrahydro-1H-pyrrolizin-7a(5H)-yl)methoxy)-5a,6,7,8,9,10-hexahydro-5H-6,9-epiminoazepino[2′,1′:3,4][1,4]oxazepino[5,6,7-de]quinazolin-2-yl)-5-ethylnaphthalen-2-ol dihydrochloride]	1940
CCc1cccc2cc(O)cc(-c3c(F)c4c5c(nc(OC[C@@]67CCCN6C[C@H](F)C7)nc5c3F)N3CC5CCC(N5)C3CCO4)c12 (single isomer, unassigned) [Compound 13b, 4-((2R or 2S, 6aS,7S,10R)-1,3-difluoro-14-(((2R,7aS)-2-fluorotetrahydro-1H-pyrrolizin-7a(5H)-yl)methoxy)-5,6,6a,7,8,9,10,11-octahydro-7,10-epiminoazepino[1′,2′: 5,6][1,5]oxazocino[4,3,2-de]quinazolin-2-yl)-5-ethylnaphthalen-2-ol dihydrochloride]	8930
CCc1cccc2cc(O)cc(-c3c(F)c4c5c(nc(OC[C@]67C[C@@H](F)CN6C[C@@H](OC)C7)nc5c3F)N3CC5CCC(N5)C3CO4)c12 (single isomer, unassigned) [Compound 16b, 4-((2S or 2R,5aS,6S,9R)-1,3-difluoro-13-(((2R,6S,7aS)-2-fluoro-6-methoxytetrahydro-1H-pyrrolizin-7a(5H)-yl)methoxy)-5a,6,7,8,9,10-hexahydro-5H-6,9-epiminoazepino[2′, l′: 3,4][1,4]oxazepino[5,6,7-de]quinazolin-2-yl)-5-ethylnaphthalen-2-ol dihydrochloride]	7.55
